Laboratory results as given in patent publication US5643912A, “Pyrazinoic acid esters as anti-mycobacterium avium agents” (The Research Foundation of State University of NY, priority 1996, dated 1997).
In brackets after ≈: the same amount, converted by molar mass. Where two headings read alike, the source gives them in different places.

Key:
M. tuberculosis 102 = experiment: Broth dilution MIC vs M. tuberculosis 102; type: cell-based
M. kansasii SWK = experiment: Broth dilution MIC vs M. kansasii SWK; type: cell-based; conditions: Mycobacterium kansasii, 7H10 broth, pH 5.8
[1] = tested on: Myobacterium tuberculosis H37RV; conditions: cited from earlier work
M. avium 101 = experiment: Broth dilution MIC vs M. avium 101; type: cell-based; conditions: Mycobacterium avium, 7H10 broth, pH 5.8
M. tuberculosis BUR = experiment: Broth dilution MIC vs M. tuberculosis BUR; type: cell-based; conditions: Mycobacterium tuberculosis, M. tuberculosis BUR (footnote b), 7H10 broth, pH 5.8
[2] = tested on: a number of bacteria including M. tuberculosis; conditions: Suzuki et al. 1958; cited from earlier work
M. avium LPR = experiment: Broth dilution MIC vs M. avium LPR; type: cell-based; conditions: Mycobacterium avium, M. avium LPR (footnote a), 7H10 broth, pH 5.8
[3] = Mycobacterium tuberculosis, 102, pH 5.8, M. tuberculosis 102, 7H10 broth, read-out: MIC

Row | Compound | MIC (M. tuberculosis 102; [3]) | MIC (M. kansasii SWK) | MIC (M. avium 101) | other results
1 | CC(C)(C)c1ccc(OC(=O)c2cnccn2)cc1 [Example 65] | 25 µg/mL (≈ 97.5 µM) | 25 µg/mL (≈ 97.5 µM) |  | 
2 | CN(C)CCOC(=O)c1cnccn1 [N,N-dimethyl-2-aminoethyl pyrazinoate] |  |  |  | in vitro activity against M. tuberculosis H37RV [1]: active
3 | CC(C)(C)OC(=O)c1cnc(Cl)cn1 [Example 35] | 2 µg/mL (≈ 9.32 µM) | < 1 µg/mL | 128 µg/mL (≈ 596 µM) | 
4 | O=C(OCCCl)c1cnccn1 [Example 62] |  | 25 µg/mL (≈ 134 µM) |  | MIC (M. tuberculosis BUR): 6.3 µg/mL (≈ 33.8 µM)
5 | COC(=O)c1cnc(F)cn1 [Example 23] | 4 µg/mL (≈ 25.6 µM) | 8 µg/mL (≈ 51.2 µM) | 64 µg/mL (≈ 410 µM) | 
6 | CCCCCCCC(C)(CCCCC)OC(=O)c1cnc(Cl)cn1 (stereo not shown) [Example 47] | 2 µg/mL (≈ 5.64 µM) |  | > 64 µg/mL | 
7 | pyrazinoate ester of chloramphenicol |  |  |  | activity against bacteria including M. tuberculosis [2]: inactive
8 | CCCCCCC(C)OC(=O)c1cnc(Cl)cn1 (stereo not shown) [Example 8] | < 0.25 µg/mL | < 0.25 µg/mL | 32 µg/mL (≈ 118 µM) | 
9 | CCCCCCCC(C)(CCCC)OC(=O)c1cnc(Cl)cn1 (stereo not shown) [Example 37] | 8 µg/mL (≈ 23.5 µM) | 16 µg/mL (≈ 46.9 µM) | > 64 µg/mL | 
10 | CCCCCCCCCCCCCCCOC(=O)c1cnc(Cl)cn1 [Example 7] | 0.13 µg/mL (≈ 0.352 µM) | 0.25 µg/mL (≈ 0.678 µM) | > 16 µg/mL | 
11 | O=C(Oc1ccc([N+](=O)[O-])cc1)c1cnccn1 [Example 63] |  | 25 µg/mL (≈ 102 µM) |  | MIC (M. tuberculosis BUR): 12.5 µg/mL (≈ 51 µM)
12 | CCCCOCCOCCOC(=O)c1cnc(Cl)cn1 [Example 11] | 0.5 µg/mL (≈ 1.65 µM) | 2 µg/mL (≈ 6.61 µM) | 64 µg/mL (≈ 211 µM) | 
13 | CCC(C)OC(=O)c1cnccn1 (stereo not shown) [Example 50] | 8 µg/mL (≈ 44.4 µM) | 16 µg/mL (≈ 88.8 µM) | 256 µg/mL (≈ 1420 µM) | 
14 | CCCCCCCCC(C)(CCCC)OC(=O)c1cnc(Cl)cn1 (stereo not shown) [Example 38] | 16 µg/mL (≈ 45.1 µM) | > 16 µg/mL | > 64 µg/mL | 
15 | CCCCCCOC(=O)c1cnc(Cl)cn1 [Example 13] | 0.13 µg/mL (≈ 0.536 µM) | < 0.03 µg/mL | 32 µg/mL (≈ 132 µM) | 
16 | CCCCCCCCCC(C)OC(=O)c1cnc(Cl)cn1 (stereo not shown) [Example 36] | 0.25 µg/mL (≈ 0.799 µM) | 0.25 µg/mL (≈ 0.799 µM) | 16 µg/mL (≈ 51.1 µM) | 

Row | Compound | MIC (M. tuberculosis 102; [3]) | MIC (M. kansasii SWK) | MIC (M. avium 101) | other results
17 | CCCCCCC(C)(C)OC(=O)c1cnc(Cl)cn1 [Example 21] | 0.25 µg/mL (≈ 0.878 µM) | 1 µg/mL (≈ 3.51 µM) | 64 µg/mL (≈ 225 µM) | 
18 | CCCCCCCCCCCCCCCOC(=O)c1cnccn1 [Example 2] | 0.06 µg/mL (≈ 0.179 µM) | 1 µg/mL (≈ 2.99 µM) |  | MIC (M. avium LPR): 8 µg/mL (≈ 23.9 µM)
19 | COCCOCCOCCOC(=O)c1cnc(Cl)cn1 [Example 12] | 2 µg/mL (≈ 6.56 µM) | 8 µg/mL (≈ 26.3 µM) | 64 µg/mL (≈ 210 µM) | 
20 | O=C(Oc1c(F)c(F)c(F)c(F)c1F)c1cnccn1 [Example 66] |  | 25 µg/mL (≈ 86.2 µM) |  | 
21 | CCCCCCC(C)(CCCCC)OC(=O)c1cnc(Cl)cn1 (stereo not shown) [Example 46] | 2 µg/mL (≈ 5.87 µM) | 8 µg/mL (≈ 23.5 µM) | > 64 µg/mL | 
22 | O=C(OCc1ccccc1)c1cnccn1 [Example 52] | 1 µg/mL (≈ 4.67 µM) | 1 µg/mL (≈ 4.67 µM) | 64 µg/mL (≈ 299 µM) | 
23 | CCCCCCC(C)(C)OC(=O)c1cnc(Cl)cn1 [Example 22] |  |  |  | MIC (M. tuberculosis 102; M. tuberculosis 102, 7H10 broth, pH 5.8): 0.13 µg/mL (≈ 0.456 µM)
24 | CCCOC(=O)c1cnc(Cl)cn1 [Example 15] | 0.06 µg/mL (≈ 0.299 µM) | 0.25 µg/mL (≈ 1.25 µM) | 16 µg/mL (≈ 79.8 µM) | 
25 | O=C(OC(C(F)(F)F)C(F)(F)F)c1cnccn1 [Example 60] |  |  |  | MIC (M. tuberculosis BUR): 100 µg/mL (≈ 365 µM)
26 | CCCCCCCCOC(=O)c1cnc(Cl)cn1 [Example 14] | 0.06 µg/mL (≈ 0.222 µM) | < 0.03 µg/mL | 16 µg/mL (≈ 59.1 µM) | 
27 | CCCCCCCOC(=O)c1cnc(Cl)cn1 [Example 18] | 0.06 µg/mL (≈ 0.234 µM) | < 0.03 µg/mL | 8 µg/mL (≈ 31.2 µM) | 
28 | CCCCCOC(=O)c1cnc(Cl)cn1 [Example 26] | 0.06 µg/mL (≈ 0.262 µM) | 0.03 µg/mL (≈ 0.131 µM) | 32 µg/mL (≈ 140 µM) | 
29 | CCCCCCCCC(C)OC(=O)c1cnc(Cl)cn1 (stereo not shown) [Example 19] | 0.03 µg/mL (≈ 0.1 µM) | 0.13 µg/mL (≈ 0.435 µM) | 32 µg/mL (≈ 107 µM) | 
30 | CCCCCC(C)OC(=O)c1cnc(Cl)cn1 (stereo not shown) [Example 24] | 0.06 µg/mL (≈ 0.234 µM) | < 0.13 µg/mL | 32 µg/mL (≈ 125 µM) | 
31 | Cc1cc(C)c(OC(=O)c2cnccn2)c(C)c1 [Example 55] | 1 µg/mL (≈ 4.13 µM) | 2 µg/mL (≈ 8.25 µM) | 64 µg/mL (≈ 264 µM) | 
32 | COC(=O)c1cnc(Cl)cn1 [Example 5] | 4 µg/mL (≈ 23.2 µM) | 2 µg/mL (≈ 11.6 µM) |  | MIC (M. avium LPR): 64 µg/mL (≈ 371 µM)
